Experimental data: article PMC12060275, “Biochemical, Structural, and Conformational Characterization of a Fungal Ethylene-Forming Enzyme” (Biochemistry, 2025)

Columns and labels:
PK2 EFE [1] = target: T1, PK2 EFE (Pseudomonas savastanoi, UniProt P32021); experiment: succinate production by LC-MS/MS versus 2OG concentration; assay type: biochemical; design: recombinant from E. coli, His6 tag removed with TEV protease, apoprotein after EDTA/DTT treatment; conditions: no L-Arg (uncoupled decarboxylation), 0.2 mM Fe(II), 0.4 mM L-ascorbate, 25 mM HEPES pH 7.5, 22 °C
T1 sequence (P32021 whole entry): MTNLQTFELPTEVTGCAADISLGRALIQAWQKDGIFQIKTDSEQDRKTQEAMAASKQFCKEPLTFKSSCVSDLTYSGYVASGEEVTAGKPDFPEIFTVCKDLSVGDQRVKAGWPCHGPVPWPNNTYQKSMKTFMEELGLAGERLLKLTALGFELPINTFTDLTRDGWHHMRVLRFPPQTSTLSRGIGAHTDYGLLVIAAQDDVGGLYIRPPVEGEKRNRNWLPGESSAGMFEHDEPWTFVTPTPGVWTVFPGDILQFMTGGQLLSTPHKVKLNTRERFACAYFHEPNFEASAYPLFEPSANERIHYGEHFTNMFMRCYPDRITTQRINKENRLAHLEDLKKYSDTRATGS

PK2 EFE [2] = target: T1, PK2 EFE; conditions: 1 mM 2OG, 1 mM L-Arg, 0.4 mM Fe(II), 1 mM L-ascorbate, 25 mM HEPES pH 7.5, room temperature

| SMILES | succinate production by LC-MS/MS versus 2OG concentration (PK2 EFE [1]) | ethylene by GC and P5C by 2-aminobenzaldehyde assay (partition ratio) (PK2 EFE [2]) |
| --- | --- | --- |
| O=C(O)CCC(=O)C(=O)O [2OG] | such an uncoupled reaction occurs in both Pd1 and PK2 versions of EFE | – |
| N=C(N)NCCC[C@H](N)C(=O)O [L-Arg] | – | we compared the ethylene/P5C partition ratios for PK2 EFE and Pd1 EFE |
